Test results taken from patent US11371985B2, “Selection of agents modulating gastrointestinal pain” (BIOGAIA AB, priority 2014, dated 2022).
Several values for one entry are separate records, joined by “and”; a condition that tells them apart may be missing. Equal values may be shown once.

How the values were obtained:
[1] = target: T1, TRPV1 receptor (Mus musculus, UniProt Q704Y3); parameters: Segments of distal jejunum (˜2.5 cm) with attached mesenteric tissue were removed from freshly killed animals; from tissue; host or cells: mouse distal jejunum with attached mesenteric nerve bundle (ex vivo); species or system Swiss Webster mice
[2] = target: T1, TRPV1 receptor; experiment: Capsaicin-induced Ca2+ rise in DRG neuronal primary cultures (Fluo-4 Ca2+ imaging); assay type: cell-based; parameters: we used Ca^2+ imaging of DRG neuronal primary culture for these experiments; endogenous in cells; host or cells: primary dorsal root ganglion neurons (thoracolumbar levels)
Procedure: The spinal column was removed from the body, transferred to a beaker containing ice-cold Krebs, and bisected longitudinally. DRG were exposed and collected from the thoracolumbar levels. Whole DRG were washed twice with sterile Leibovitz's L-15 medium (GIBCO, Gaithersburg, Md.), and incubated for 40 min in collagenase type 1 at 1 mg/ml (Sigma-Aldrich; Oakville, ON, Canada) and 0.5 ml trypsin (0.25%, GIBCO) in 20 ml L-15 at 37° C. After further addition of 5 ml L-15 containing 10% fetal bovine serum (FBS, GIBCO), the ganglia were centrifuged for 5 min at 1,000 rpm, then washed twice with growth medium (L-15, containing 10% FBS, 1% Penicillin/Streptomycin/Glutamine, 1% HEPES and 1% Na Pyruvate). […]
DRG neurons were placed within a plexiglass recording dish and loaded with the Ca^2+ indicator Fluo-4-AM (8 μM) diluted in Krebs with 0.1% pluronic acid (in DMSO) at 37° C. for 60 min. […] Fluorescence intensity in individual neurons was recorded by Simple PCI 6 software (Compix Inc, Imaging systems, Sewickley, Pa.). […] Images, recorded at 0.9 frame/s, were stored on a local hard drive. Image files were analyzed off-line using Image J software (NIH, USA, http://imagej.nih.gov/ij). The increase in Fluo-4 Ca^2+ when applying capsaicin was measured as the ratio (F/F0) fluorescence intensity after capsaicin (F) divided by the intensity before capsaicin (F0). […]

[3] = tested on: fibers presumed to be nociceptors; parameters: species or system Swiss Webster mice

T1 sequence (Q704Y3 whole entry): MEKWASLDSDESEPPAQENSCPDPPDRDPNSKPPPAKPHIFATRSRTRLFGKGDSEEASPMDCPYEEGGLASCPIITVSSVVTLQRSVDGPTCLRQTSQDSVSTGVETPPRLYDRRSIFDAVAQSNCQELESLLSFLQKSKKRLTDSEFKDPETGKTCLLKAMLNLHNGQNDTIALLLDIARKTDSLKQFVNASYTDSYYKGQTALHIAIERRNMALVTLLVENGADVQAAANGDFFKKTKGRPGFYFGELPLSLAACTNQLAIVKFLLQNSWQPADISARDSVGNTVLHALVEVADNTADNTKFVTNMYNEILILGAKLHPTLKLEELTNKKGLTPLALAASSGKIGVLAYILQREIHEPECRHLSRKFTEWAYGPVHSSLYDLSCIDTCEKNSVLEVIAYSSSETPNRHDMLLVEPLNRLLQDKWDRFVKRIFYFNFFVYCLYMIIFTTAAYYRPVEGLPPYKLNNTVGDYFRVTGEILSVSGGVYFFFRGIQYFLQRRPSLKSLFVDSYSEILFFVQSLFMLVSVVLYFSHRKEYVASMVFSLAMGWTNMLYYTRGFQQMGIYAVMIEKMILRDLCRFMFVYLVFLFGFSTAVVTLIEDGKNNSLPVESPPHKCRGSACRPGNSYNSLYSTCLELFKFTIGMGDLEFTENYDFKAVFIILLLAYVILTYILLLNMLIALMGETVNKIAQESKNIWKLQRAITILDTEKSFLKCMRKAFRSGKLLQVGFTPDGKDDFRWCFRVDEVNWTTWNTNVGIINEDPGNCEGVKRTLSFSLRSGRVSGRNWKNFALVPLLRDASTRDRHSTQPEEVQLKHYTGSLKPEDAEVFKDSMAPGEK

For COc1cc(CNC(=O)CCCC/C=C/C(C)C)ccc1O [capsaicin], the “capsaicin-evoked excitation with intramural synaptic blockage” value ([1]; 1 μM capsaicin in presence of 500 nM each ω-Cg-GVIA and ω-Cg-MVIIC, n=12, P=0.947) was 219.1±72.6%, the “capsaicin-evoked excitation (firing frequency increase)” value ([1]; 1 μM capsaicin serosal, alone (control group), n=17) was 187.5±42.9% and 187.5±43% and the “maximal response (Top) obtained with capsaicin” value ([1]; capsaicin alone, increase in firing frequency above baseline) was 238±27%. The “onset latency of capsaicin-induced firing rate increase” value ([1]; capsaicin applied to serosal compartment) was ~60 s, the Emax ([1]; read-out: maximal response (Top) obtained with capsaicin, capsaicin alone, increase in firing frequency above baseline) was 238 ± 27.5% and the EC50 ([1]; serosal capsaicin 100 nM-100 μM, vagotomized mice, three-parameter logistic fit, read-out: EC50 for capsaicin alone (increase in firing frequency)) was 200 nM. For the same molecule, the “fluorescence rise ratio F/F0 evoked by capsaicin” value ([2]; 1 μM capsaicin alone (control group, N=14)) was 2.36±0.31 and the “time to increase in intracellular Ca2+ after puffing capsaicin” value ([2]; 1 μM capsaicin onto DRG neurons) was ~30 s.

With COc1cc(CNC(=O)CCCCCC(C)C)c(I)cc1O [6-Iodonordihydrocapsaicin] the “single-unit response to distension” value [3] was 2.23±0.50 Hz.
